# Numbered stars: 1 amine (or outer) side, 2 acyl side, 3 side chain; on linkers, the order of the positions; unused ones are H or OH. Square brackets hold non-standard residues; d marks the D form. Peptide text beside a SMILES is read from it. * marks the point of attachment. X2 = CC1(C)C(=O)N(c2ccc(C#N)c(C(F)(F)F)c2)C(=S)N1c1ccc(C(=O)*)c(F)c1; X1 = O=C1CCC(N2C(=O)c3cccc(N(CC(=O)[*:2])[*:1])c3C2=O)C(=O)N1; EuK = O=C(O)CC[C@H](NC(=O)N[C@@H](CCCCN*)C(=O)O)C(=O)O; 2Nal = N[C@@H](Cc1ccc2ccccc2c1)C(=O)O
# Tests used:
# [1] = target: T1, AR protein (Homo sapiens, UniProt P10275); assay: MST binding affinity, Psa-AR and AR protein; conditions: RED-NHS-labeled AR 400 nM, PBS-T, 22 °C, n = 3, read-out: Kd, binding affinity between Psa-AR and AR
# T1 sequence (P10275 1-920): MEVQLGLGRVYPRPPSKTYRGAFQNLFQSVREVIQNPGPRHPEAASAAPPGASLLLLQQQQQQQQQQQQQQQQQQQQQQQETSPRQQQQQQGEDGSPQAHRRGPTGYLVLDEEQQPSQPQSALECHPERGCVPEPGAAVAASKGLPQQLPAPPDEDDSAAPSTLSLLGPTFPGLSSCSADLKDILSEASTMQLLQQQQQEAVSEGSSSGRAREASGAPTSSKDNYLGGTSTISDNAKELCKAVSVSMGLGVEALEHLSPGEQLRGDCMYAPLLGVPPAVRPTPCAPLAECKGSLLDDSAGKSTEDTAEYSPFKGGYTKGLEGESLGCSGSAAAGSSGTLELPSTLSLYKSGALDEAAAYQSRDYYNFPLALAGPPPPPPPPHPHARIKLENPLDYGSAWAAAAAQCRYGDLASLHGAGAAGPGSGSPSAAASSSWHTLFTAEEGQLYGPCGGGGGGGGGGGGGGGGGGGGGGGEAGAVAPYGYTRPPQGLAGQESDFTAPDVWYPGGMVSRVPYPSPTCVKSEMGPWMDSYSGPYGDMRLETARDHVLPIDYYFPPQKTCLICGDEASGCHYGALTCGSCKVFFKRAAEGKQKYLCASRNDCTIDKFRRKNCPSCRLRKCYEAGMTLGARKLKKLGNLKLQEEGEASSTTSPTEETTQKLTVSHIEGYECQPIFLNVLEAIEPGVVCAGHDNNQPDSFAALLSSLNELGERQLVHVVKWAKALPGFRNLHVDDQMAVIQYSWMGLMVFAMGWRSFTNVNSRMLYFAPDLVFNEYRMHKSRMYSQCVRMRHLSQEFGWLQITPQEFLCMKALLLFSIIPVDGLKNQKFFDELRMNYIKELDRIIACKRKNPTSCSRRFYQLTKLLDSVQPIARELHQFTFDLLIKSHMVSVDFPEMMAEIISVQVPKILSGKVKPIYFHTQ
# Source text: (§1) Fig. 3 Polynary nanocomposite (AR: Psa-AR: CRBN) formation. a Dose‒response curve for the binding interaction between Psa-AR and the AR protein; n = 3 per group. b Dose‒response curve for the binding interaction between Psa-AR and the CRBN protein; n = 3 per group. c Dose‒response curve for the binding interaction between the binary complex (Psa-AR: AR) and CRBN, n = 3 per group. d In vitro Psa-AR self-assembly, protein binding and degradation. e Representative 22Rv1 cell CLSM images of FITC-labeled Psa-AR assembly (green channel) interacting with HSP90 (red channel) and its colocalization analysis (1–1’). […] Scale bar: 10 μm.
# (§2) MST (NanoTemper Technologies GmbH, Munich, Germany) was utilized to evaluate the binding affinity between Psa-AR and RED-NHS-labeled PSMA, AR, or CRBN proteins. The PSMA, AR, and CRBN proteins were labeled with the Protein Labeling Kit RED-NHS 2nd Generation (Amine Reactive). RED-PSMA, RED-AR, and RED-CRBN proteins were diluted to a final concentration of 400 nM with PBS-T buffer (0.05% Tween 20), where the fluorescence signals satisfied the typical detection limit of the Monolith NT.115 instrument (NanoTemper Technologies). The binding affinity between Psa-AR and the RED-NHS-labeled AR protein was assessed. […] Then, 10 µL of RED-CRBN was added to each sample to achieve a final concentration of 400 nM. […] The data were analyzed by NanoTemper analysis software.
# [2] = target: CRBN protein (Homo sapiens, UniProt Q96SW2); assay: MST binding affinity, Psa-AR and CRBN protein; conditions: RED-NHS-labeled CRBN 400 nM, PBS-T, 22 °C, n = 3
# Source text: as §1, §2
# [3] = TEM of assemblies after PSMA addition; type: physicochemical; conditions: 40 μM, within 0.5 h of PSMA engagement
# [4] = test system: AR; assay: Western blot AR degradation in 22Rv1 cells; type: cell-based
# Description: (§3) All uncropped blots are presented in Supplementary Fig. 26. j, k Representative 22Rv1 cell CLSM images of the degradation of AR after incubation with FITC-labeled Psa-AR for 12 h and quantitative analysis, n = 3 per group. Scale bar: 10 μm. l, m Representative 22Rv1 cell CLSM images of the degradation of HSP90 after incubation with FITC-labeled Psa-AR for 12 h and quantitative analysis, n = 3 per group. Scale bar: 10 μm. n AR-V7 expression in 22Rv1 cells after treatment with PBS, P-AR (20 μM), Psa-AR (20 μM) or Psa-AR (20 μM) combined with MG132 (2 μM) for 48 h, as determined by western blotting. β-Actin was used as an internal reference. o Results of apoptosis in 22Rv1 cells treated with PBS, P-AR (20 μM), or Psa-AR (20 μM) for 48 h, as detected by flow cytometry.
# (§4) The pretreated cells were resuspended in lysis buffer containing 50 mM Tris-HCl (pH 8.0), 150 mM NaCl, 1% (v/v) Triton X-100, and protease inhibitors. The protein concentration was determined via a BCA kit (Applygen). Each sample ([…]) was subjected to SDS‒PAGE and then transferred to a PVDF membrane. The blots were blocked in 5% (wt/v) blocking buffer. After washing three times with TBST buffer (10 mM TBS solution containing 0.1% (v/v) Tween-20), the blots were incubated with primary antibodies at 4 °C on a shaker for 16 h. After washing with TBST buffer three times, the blot was incubated with secondary antibodies at room temperature on a shaker for 2 h. After being washed three times with TBST buffer, the blots were subsequently scanned on a Typhoon Trio Variable Mode Imager.
# [5] = test system: AR; assay: Western blot AR degradation in 22Rv1 (PSMA^KD) cells; type: cell-based; conditions: 20 μM, 48 h
# Description: as §3
# as §4, with “After washing with TBST buffer three times, the blot was incubated with secondary antibodies at room temperature on a shaker for 2 h. After being washed three times with TBST buffer, the blots were subsequently scanned on a Typhoon Trio Variable Mode Imager.” left out
# [6] = test system: HSP90; assay: Western blot HSP90 degradation in 22Rv1 cells; type: cell-based
# Description: as §3
# as §4, with “After washing with TBST buffer three times, the blot was incubated with secondary antibodies at room temperature on a shaker for 2 h. After being washed three times with TBST buffer, the blots were subsequently scanned on a Typhoon Trio Variable Mode Imager.” left out
# [7] = test system: RWPE-1 cells; assay: Cytotoxicity in normal RWPE-1 cells; type: cell-based; conditions: PSMA^low normal RWPE-1 cells, 1–100 μM, 48 h of exposure
# [8] = not given; remark: listed apart in the source
# [9] = western blot, 22Rv1, 20 μM, 48 h
# CRBN protein, sequence (Q96SW2 whole entry): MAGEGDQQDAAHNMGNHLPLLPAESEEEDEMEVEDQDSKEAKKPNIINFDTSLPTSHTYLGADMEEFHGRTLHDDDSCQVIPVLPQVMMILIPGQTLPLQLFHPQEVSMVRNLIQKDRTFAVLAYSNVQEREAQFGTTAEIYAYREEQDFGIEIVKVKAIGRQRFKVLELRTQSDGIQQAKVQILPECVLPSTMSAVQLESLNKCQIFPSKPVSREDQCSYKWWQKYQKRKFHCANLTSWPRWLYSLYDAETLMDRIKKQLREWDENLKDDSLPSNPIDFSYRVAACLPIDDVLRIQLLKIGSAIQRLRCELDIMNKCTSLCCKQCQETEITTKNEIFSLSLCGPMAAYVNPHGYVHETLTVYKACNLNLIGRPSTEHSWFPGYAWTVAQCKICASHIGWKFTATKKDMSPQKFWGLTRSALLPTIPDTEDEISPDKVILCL
smiles,measurement,setting,value
CC1(C)C(=O)N(c2ccc(C#N)c(C(F)(F)F)c2)C(=S)N1c1ccc(C(=O)NCCCC[C@H](NC(=O)CNc2cccc3c2C(=O)N(C2CCC(=O)NC2=O)C3=O)C(=O)N[C@@H](CS)C(=O)N[C@@H](CCC(N)=O)C(=O)N[C@@H](Cc2ccc(O)cc2)C(=O)N[C@@H](CC(N)=O)C(=O)N[C@@H](CCC(N)=O)C(=O)N[C@@H](Cc2ccc(O)cc2)C(=O)N[C@@H](Cc2ccc(O)cc2)C(=O)N[C@@H](Cc2ccc3ccccc3c2)C(=O)NCCCC[C@H](NC(=O)N[C@@H](CCC(=O)O)C(=O)O)C(=O)O)c(F)c1 (stereo partly shown) [Psa-AR] (H-[X1]K(X2)CQYNQYY[2Nal]-EuK),Kd,[1],0.95 µM
same,Kd,[2],1.06 µM
same,diameter of spherical nanoparticles,[3],200–250 nm
same,AR protein knockdown maintained within 96-h observation period,"[4]; 22Rv1, 20 μM, 12–96 h",over 99%
same,DC50,"[4]; 22Rv1 cell line, 1 to 100 μM, read-out: DC50 for AR protein degradation",9.45 µM
same,AR degradation compared with PBS controls,[4]; [9],79%
same,enhancement of AR degradation over P-AR,[4]; [9],45%
same,AR protein degradation in PSMA-knockdown cells,[5],failed to induce significant protein degradation
same,HSP90 degradation,"[6]; 22Rv1, 20 μM, 48 h, western blot",> 60%
same,sustained HSP90 protein clearance over 96 h,"[6]; 22Rv1, optimal concentrations, 96 h",78%
same,cell viability relative to vehicle controls,[7],above 90%
same,FTIR amide I peak with PSMA,,1630 cm⁻¹
same,FTIR amide I peak without PSMA,[8],1660 cm⁻¹

# Source: PMC12521527, “In vivo self-assembled nano-PROTAC for the dual degradation of AR and HSP90 to overcome castration-resistant prostate cancer resistance” (Signal Transduction and Targeted Therapy, 2025)
